Assay results as given in PMC9721025, “Pharmacokinetic study of the main components of Tanreqing capsules and Tanreqing injections in beagles by liquid chromatography–tandem mass spectrometry” (Chinese Medicine, 2022).
Read-outs that look alike come from different tables or passages of the source.

Assays:
[1] = Pharmacokinetics in beagles, multiple-dose regimen (once per day for 7 days) of TRQI or TRQC, plasma LC-MS/MS; type: in vivo; conditions: beagle, dog; for Cmax at 7 days / Tmax at 7 days / half-life at 7 days: mean
Method in brief: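 Six beagles dosed once daily for 7 days with TRQI (0.5 mL/kg injection) or TRQC (0.09 g/kg), crossover after washout. Plasma sampled 0–24 h after seventh dose, methanol/acetonitrile-precipitated, measured by LC–MS/MS. Steady-state parameters by non-compartmental analysis.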

[2] = Stability of analytes in dog plasma (QC samples); type: in vitro ADME
Method in brief: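 QC samples in dog plasma at three concentration levels, three replicates each, tested for short-term (6 h room temperature), long-term (−80 °C, 30 days) and freeze–thaw (three cycles, −80 °C to room temperature) stability. Working solutions prepared in methanol/water 10:90.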

[3] = Pharmacokinetics in beagles, single-dose regimen of TRQI (i.v.) or TRQC (oral), plasma LC-MS/MS; type: in vivo, beagle; conditions: for AUC(0-t) / Cmax / Tmax / half-life: beagle, dog, plasma; for AUC(0-t): read-out: AUC0–24 h; for Cmax / Tmax / half-life: mean of six beagles
Method in brief: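 Plasma parameters came from non-compartmental analysis of LC–MS/MS data after methanol/acetonitrile precipitation. Three male and three female beagles each received single doses of both formulations in a two-period crossover, 7 days apart: 0.5 mL/kg TRQI intravenously and 0.09 g/kg TRQC by mouth, with 14 blood samples over 24 h.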

[4] = cited from earlier work; for t1/2: Tanreqing injection
[5] = both sexes, iv, TRQI 0.5 mL/kg once per day for 7 days
[6] = both sexes, po, TRQC 0.09 g/kg once per day for 7 days
[7] = n = 3, high QC: nominal 200 ng/mL baicalin, 1000 ursodeoxycholic acid, 100 chenodeoxycholic acid and chlorogenic acid
[8] = n = 3, low QC: nominal 4 ng/mL baicalin, 20 ursodeoxycholic acid, 2 chenodeoxycholic acid and chlorogenic acid
[9] = n = 3, middle QC: nominal 20 ng/mL baicalin, 100 ursodeoxycholic acid, 10 chenodeoxycholic acid and chlorogenic acid
[10] = both sexes, iv, single i.v. dose of TRQI 0.5 mL/kg
[11] = both sexes, single oral dose of TRQC 0.09 g/kg

In the case of `O=C(O)[C@H]1O[C@@H](Oc2cc3oc(-c4ccccc4)cc(=O)c3c(O)c2O)[C@H](O)[C@@H](O)[C@@H]1O` [Baicalin, baicalin], the AUC(0-inf) ([1]; both sexes, iv, 0.5 mL/kg, TRQI 0.5 mL/kg for 7 days, Mean) is reported as 548 ng·h/mL, the AUC(0-t) ([1]; both sexes, iv, 0.5 mL/kg, TRQI 0.5 mL/kg for 7 days, Mean, read-out: AUC0–24 h) is reported as 395 ng·h/mL and the Cmax at 7 days [1, 5] is reported as 1370 ng/mL. It also gave a Tmax at 7 days [1, 5] of 0.11 h, a half-life at 7 days [1, 5] of 5.54 h and an AUC(0-inf) ([1]; both sexes, po, 0.09 g/kg, TRQC 0.09 g/kg for 7 days, Mean) of 142 ng·h/mL. The AUC(0-t) ([1]; both sexes, po, 0.09 g/kg, TRQC 0.09 g/kg for 7 days, Mean, read-out: AUC0–24 h) was 107 ng·h/mL, the Cmax at 7 days [1, 6] was 12.2 ng/mL and the Tmax at 7 days [1, 6] was 7.25 h. It also gave a half-life at 7 days [1, 6] of 12.1 h, an AUC(0-inf) ([1]; female, iv, 0.5 mL/kg, TRQI 0.5 mL/kg for 7 days, beagle No. 4) of 670 ng·h/mL and an AUC(0-t) ([1]; female, iv, 0.5 mL/kg, TRQI 0.5 mL/kg for 7 days, beagle No. 4, read-out: AUC0–24 h) of 527 ng·h/mL. The AUC(0-inf) ([1]; female, iv, 0.5 mL/kg, TRQI 0.5 mL/kg for 7 days, beagle No. 5) was 711 ng·h/mL, the AUC(0-t) ([1]; female, iv, 0.5 mL/kg, TRQI 0.5 mL/kg for 7 days, beagle No. 5, read-out: AUC0–24 h) was 526 ng·h/mL and the AUC(0-inf) ([1]; female, iv, 0.5 mL/kg, TRQI 0.5 mL/kg for 7 days, beagle No. 6) was 1290 ng·h/mL. The AUC(0-t) ([1]; female, iv, 0.5 mL/kg, TRQI 0.5 mL/kg for 7 days, beagle No. 6, read-out: AUC0–24 h) was 865 ng·h/mL, the AUC(0-inf) ([1]; female, po, 0.09 g/kg, TRQC 0.09 g/kg for 7 days, beagle No. 4) was 88.3 ng·h/mL and the AUC(0-t) ([1]; female, po, 0.09 g/kg, TRQC 0.09 g/kg for 7 days, beagle No. 4, read-out: AUC0–24 h) was 68 ng·h/mL. It also gave an AUC(0-inf) ([1]; female, po, 0.09 g/kg, TRQC 0.09 g/kg for 7 days, beagle No. 5) of 398 ng·h/mL, an AUC(0-t) ([1]; female, po, 0.09 g/kg, TRQC 0.09 g/kg for 7 days, beagle No. 5, read-out: AUC0–24 h) of 245 ng·h/mL and an AUC(0-inf) ([1]; female, po, 0.09 g/kg, TRQC 0.09 g/kg for 7 days, beagle No. 6) of 44.3 ng·h/mL. For the same compound, the AUC(0-t) ([1]; female, po, 0.09 g/kg, TRQC 0.09 g/kg for 7 days, beagle No. 6, read-out: AUC0–24 h) was 32.5 ng·h/mL, the AUC(0-inf) ([1]; male, iv, 0.5 mL/kg, TRQI 0.5 mL/kg for 7 days, beagle No. 1) was 45.8 ng·h/mL and the AUC(0-t) ([1]; male, iv, 0.5 mL/kg, TRQI 0.5 mL/kg for 7 days, beagle No. 1, read-out: AUC0–24 h) was 42.6 ng·h/mL. For the same compound, the AUC(0-inf) ([1]; male, iv, 0.5 mL/kg, TRQI 0.5 mL/kg for 7 days, beagle No. 2) was 534 ng·h/mL, the AUC(0-t) ([1]; male, iv, 0.5 mL/kg, TRQI 0.5 mL/kg for 7 days, beagle No. 2, read-out: AUC0–24 h) was 370 ng·h/mL and the AUC(0-inf) ([1]; male, iv, 0.5 mL/kg, TRQI 0.5 mL/kg for 7 days, beagle No. 3) was 37.6 ng·h/mL. It also gave an AUC(0-t) ([1]; male, iv, 0.5 mL/kg, TRQI 0.5 mL/kg for 7 days, beagle No. 3, read-out: AUC0–24 h) of 36.8 ng·h/mL, an AUC(0-inf) ([1]; male, po, 0.09 g/kg, TRQC 0.09 g/kg for 7 days, beagle No. 1) of 80.5 ng·h/mL and an AUC(0-t) ([1]; male, po, 0.09 g/kg, TRQC 0.09 g/kg for 7 days, beagle No. 1, read-out: AUC0–24 h) of 79.6 ng·h/mL. For the same compound, the AUC(0-inf) ([1]; male, po, 0.09 g/kg, TRQC 0.09 g/kg for 7 days, beagle No. 2) was 164 ng·h/mL, the AUC(0-t) ([1]; male, po, 0.09 g/kg, TRQC 0.09 g/kg for 7 days, beagle No. 2, read-out: AUC0–24 h) was 149 ng·h/mL and the AUC(0-inf) ([1]; male, po, 0.09 g/kg, TRQC 0.09 g/kg for 7 days, beagle No. 3) was 74.3 ng·h/mL. For the same compound, the AUC(0-t) ([1]; male, po, 0.09 g/kg, TRQC 0.09 g/kg for 7 days, beagle No. 3, read-out: AUC0–24 h) was 69.7 ng·h/mL, the “Freeze-thaw stability (3 cycles) Mean ± S.D. concentration” value (shortened to “Freeze-thaw stability”) [2, 7] was 202.81 ± 10.87 ng/mL and the “Long-term stability (30 days at – 80 °C) Mean ± S.D. concentration” value (“Long-term stability” for short) [2, 7] was 175.01 ± 4.57 ng/mL. For the same compound, the “Short-term stability (6 h at room temperature) Mean ± S.D concentration” value (from here on “Short-term stability”) [2, 7] was 182.83 ± 7.72 ng/mL, the “Freeze-thaw stability” value [2, 8] was 3.97 ± 0.36 ng/mL and the “Long-term stability” value [2, 8] was 3.50 ± 0.07 ng/mL. For the same compound, the “Short-term stability” value [2, 8] was 4.01 ± 0.31 ng/mL, the “Freeze-thaw stability” value [2, 9] was 17.88 ± 0.92 ng/mL and the “Long-term stability” value [2, 9] was 17.47 ± 0.42 ng/mL. For the same compound, the “Short-term stability” value [2, 9] was 18.43 ± 0.75 ng/mL, the oral availability ([3]; TRQC in dogs) was “small” and the AUC(0-t) ([3]; both sexes, iv, 0.5 mL/kg, single TRQI 0.5 mL/kg, Mean) was 44.4 ng·h/mL. The Cmax [3, 10] was 1050 ng/mL, the Tmax [3, 10] was 0.08 h and the half-life [3, 10] was 6.75 h. It also gave an AUC(0-t) ([3]; both sexes, po, 0.09 g/kg, single TRQCs 0.09 g/kg, Mean) of 14.1 ng·h/mL, a Cmax [3, 11] of 4.79 ng/mL and a Tmax [3, 11] of 3.78 h. It also gave a half-life [3, 11] of 4.97 h, an AUC(0-t) ([3]; female, iv, 0.5 mL/kg, single TRQI 0.5 mL/kg, beagle No 4) of 161 ng·h/mL and an AUC(0-t) ([3]; female, iv, 0.5 mL/kg, single TRQI 0.5 mL/kg, beagle No 5) of 1.98 ng·h/mL. The AUC(0-t) ([3]; female, iv, 0.5 mL/kg, single TRQI 0.5 mL/kg, beagle No 6) was 39.9 ng·h/mL, the AUC(0-t) ([3]; female, po, 0.09 g/kg, single TRQCs 0.09 g/kg, beagle No 4) was 15.6 ng·h/mL and the AUC(0-t) ([3]; female, po, 0.09 g/kg, single TRQCs 0.09 g/kg, beagle No 5) was 1.15 ng·h/mL. The AUC(0-t) ([3]; female, po, 0.09 g/kg, single TRQCs 0.09 g/kg, beagle No 6) was 3.38 ng·h/mL, the AUC(0-t) ([3]; male, iv, 0.5 mL/kg, single TRQI 0.5 mL/kg, beagle No 1) was 44.5 ng·h/mL and the AUC(0-t) ([3]; male, iv, 0.5 mL/kg, single TRQI 0.5 mL/kg, beagle No 2) was 18.7 ng·h/mL. For the same compound, the AUC(0-t) ([3]; male, iv, 0.5 mL/kg, single TRQI 0.5 mL/kg, beagle No 3) was 0.47 ng·h/mL, the AUC(0-t) ([3]; male, po, 0.09 g/kg, single TRQCs 0.09 g/kg, beagle No 1) was 16 ng·h/mL and the AUC(0-t) ([3]; male, po, 0.09 g/kg, single TRQCs 0.09 g/kg, beagle No 2) was 36.4 ng·h/mL. For the same compound, the AUC(0-t) ([3]; male, po, 0.09 g/kg, single TRQCs 0.09 g/kg, beagle No 3) was 11.8 ng·h/mL, the t1/2 ([4]; Hu's study) was 0.8 h and the t1/2 ([4]; another study) was 3.6 h. For the same compound, the clearance rate ([4]; rat, TRQI) was 24.3 mL/min/kg and the volume of distribution ([4]; rat, TRQI) was 1.07 L/kg.
